According to US20240190880A1 (THE REGENTS OF THE UNIVERSITY OF MICHIGAN, priority 2021, published 2024):

Target: T1, ER (Homo sapiens, UniProt P03372)
T1 construct: host or cells: T47D and MCF7 human breast cancer cells
T1 sequence (P03372 1-595): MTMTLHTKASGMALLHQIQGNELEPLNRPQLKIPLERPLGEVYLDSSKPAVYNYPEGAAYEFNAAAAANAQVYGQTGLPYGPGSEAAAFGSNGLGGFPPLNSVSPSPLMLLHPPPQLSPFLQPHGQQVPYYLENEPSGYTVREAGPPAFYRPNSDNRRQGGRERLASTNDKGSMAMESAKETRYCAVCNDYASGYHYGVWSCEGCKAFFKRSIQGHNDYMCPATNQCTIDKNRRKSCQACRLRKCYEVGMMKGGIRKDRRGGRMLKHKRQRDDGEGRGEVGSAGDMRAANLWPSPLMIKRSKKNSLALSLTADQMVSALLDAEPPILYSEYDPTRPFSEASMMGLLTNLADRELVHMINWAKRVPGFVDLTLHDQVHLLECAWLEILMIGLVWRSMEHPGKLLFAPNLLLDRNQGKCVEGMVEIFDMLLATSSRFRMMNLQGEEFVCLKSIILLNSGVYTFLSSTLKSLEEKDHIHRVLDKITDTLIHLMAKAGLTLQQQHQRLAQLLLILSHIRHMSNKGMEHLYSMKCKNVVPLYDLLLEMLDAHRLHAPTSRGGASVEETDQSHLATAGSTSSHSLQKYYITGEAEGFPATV
Test: ER degradation activity, in-cell western blot analysis in T47D cells
Format: cell-based
Conditions: 16 hours, Table A does not say which cell line (T47D or MCF7), read-out: Potency (DC50)
How it was run: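 Read-out is near-infrared fluorescence from an in-cell western, expressed as ER percentage relative to untreated and DMSO controls taken as 100%. T47D breast cancer cells received compound for 16 h in 0.5% DMSO.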

DC50 | Compound
10 to 100 nM | C[C@@H]1Cc2c([nH]c3ccccc23)[C@@H](c2c(F)cc(N3CCC(C(=O)N4CCC(CN5Cc6cc7c(cc6C5)C(=O)N(C5CCC(=O)NC5=O)C7=O)CC4)CC3)cc2F)N1CC(F)F (stereo partly drawn) [E 113, 6-((1-(1-(4-((1R,3R)-2-(2,2-difluoroethyl)-3-methyl-2,3,4,9-tetrahydro-1H-pyrido[3,4-b]indol-1-yl)-3,5-difluorophenyl)piperidine-4-carbonyl)piperidin-4-yl)methyl)-2-(2,6-dioxopiperidin-3-yl)-6,7-dihydropyrrolo[3,4-f]isoindole-1,3(2H,5H)-dione]
< 10 nM | C[C@@H]1Cc2c([nH]c3ccccc23)[C@@H](c2c(F)cc(N3CCC(C(=O)N4CCC(N5Cc6cc7c(cc6C5)C(=O)N(C5CCC(=O)NC5=O)C7=O)CC4)CC3)cc2F)N1CC(F)F (stereo partly drawn) [E 114, 6-(1-(1-(4-((1R,3R)-2-(2,2-difluoroethyl)-3-methyl-2,3,4,9-tetrahydro-1H-pyrido[3,4-b]indol-1-yl)-3,5-difluorophenyl)piperidine-4-carbonyl)piperidin-4-yl)-2-(2,6-dioxopiperidin-3-yl)-6,7-dihydropyrrolo[3,4-f]isoindole-1,3(2H,5H)-dione]
> 100 nM | C[C@@H]1Cc2c([nH]c3ccccc23)[C@@H](c2c(F)cc(N3CCC(N4CC(C(=O)N5Cc6cc7c(cc6C5)C(=O)N(C5CCC(=O)NC5=O)C7=O)C4)CC3)cc2F)N1CC(F)F (stereo partly drawn) [E 119, 6-(1-(1-(4-((1R,3R)-2-(2,2-difluoroethyl)-3-methyl-2,3,4,9-tetrahydro-1H-pyrido[3,4-b]indol-1-yl)-3,5-difluorophenyl)piperidin-4-yl)azetidine-3-carbonyl)-2-(2,6-dioxopiperidin-3-yl)-6,7-dihydropyrrolo[3,4-f]isoindole-1,3(2H,5H)-dione]
< 10 nM | C[C@@H]1Cc2c([nH]c3ccccc23)[C@@H](c2c(F)cc(N3CC(C(=O)N4CCC(N5Cc6cc7c(cc6C5)C(=O)N(C5CCC(=O)NC5=O)C7=O)CC4)C3)cc2F)N1CC(F)F (stereo partly drawn) [E 122, 6-(1-(1-(4-((1R,3R)-2-(2,2-difluoroethyl)-3-methyl-2,3,4,9-tetrahydro-1H-pyrido[3,4-b]indol-1-yl)-3,5-difluorophenyl)azetidine-3-carbonyl)piperidin-4-yl)-2-(2,6-dioxopiperidin-3-yl)-6,7-dihydropyrrolo[3,4-f]isoindole-1,3(2H,5H)-dione]
< 10 nM | C[C@@H]1Cc2c([nH]c3ccccc23)[C@@H](c2c(F)cc(N3CCC(CN4CCC(N5Cc6cc7c(cc6C5)C(=O)N(C5CCC(=O)NC5=O)C7=O)C4)CC3)cc2F)N1CC(F)F (stereo partly drawn) [E 129, 6-(1-((1-(4-((1R,3R)-2-(2,2-difluoroethyl)-3-methyl-2,3,4,9-tetrahydro-1H-pyrido[3,4-b]indol-1-yl)-3,5-difluorophenyl)piperidin-4-yl)methyl)pyrrolidin-3-yl)-2-(2,6-dioxopiperidin-3-yl)-6,7-dihydropyrrolo[3,4-f]isoindole-1,3(2H,5H)-dione]

Further lines, the compound ahead of its results:

Compound | DC50
C[C@@H]1Cc2c([nH]c3ccccc23)[C@@H](c2c(F)cc(N3CC4(CC(C(=O)N5CCC(CN6Cc7cc8c(cc7C6)C(=O)N(C6CCC(=O)NC6=O)C8=O)CC5)C4)C3)cc2F)N1CC(F)F (stereo partly drawn) [E 115, 6-((1-(2-(4-((1R,3R)-2-(2,2-difluoroethyl)-3-methyl-2,3,4,9-tetrahydro-1H-pyrido[3,4-b]indol-1-yl)-3,5-difluorophenyl)-2-azaspiro[3.3]heptane-6-carbonyl)piperidin-4-yl)methyl)-2-(2,6-dioxopiperidin-3-yl)-6,7-dihydropyrrolo[3,4-f]isoindole-1,3(2H,5H)-dione] | < 10 nM
C[C@@H]1Cc2c([nH]c3ccccc23)[C@@H](c2c(F)cc(N3CC4(CC(C(=O)N5CCC(N6Cc7cc8c(cc7C6)C(=O)N(C6CCC(=O)NC6=O)C8=O)CC5)C4)C3)cc2F)N1CC(F)F (stereo partly drawn) [E 116, 6-(1-(2-(4-((1R,3R)-2-(2,2-difluoroethyl)-3-methyl-2,3,4,9-tetrahydro-1H-pyrido[3,4-b]indol-1-yl)-3,5-difluorophenyl)-2-azaspiro[3.3]heptane-6-carbonyl)piperidin-4-yl)-2-(2,6-dioxopiperidin-3-yl)-6,7-dihydropyrrolo[3,4-f]isoindole-1,3(2H,5H)-dione] | < 10 nM
C[C@@H]1Cc2c([nH]c3ccccc23)[C@@H](c2c(F)cc(N3CCC(N4CC(CN5Cc6cc7c(cc6C5)C(=O)N(C5CCC(=O)NC5=O)C7=O)C4)CC3)cc2F)N1CC(F)F (stereo partly drawn) [E 117, 6-((1-(1-(4-((1R,3R)-2-(2,2-difluoroethyl)-3-methyl-2,3,4,9-tetrahydro-1H-pyrido[3,4-b]indol-1-yl)-3,5-difluorophenyl)piperidin-4-yl)azetidin-3-yl)methyl)-2-(2,6-dioxopiperidin-3-yl)-6,7-dihydropyrrolo[3,4-f]isoindole-1,3(2H,5H)-dione] | 10 to 100 nM
C[C@@H]1Cc2c([nH]c3ccccc23)[C@@H](c2c(F)cc(N3CCC(N4CCC(CN5Cc6cc7c(cc6C5)C(=O)N(C5CCC(=O)NC5=O)C7=O)CC4)CC3)cc2F)N1CC(F)F (stereo partly drawn) [E 118, 6-((1′-(4-((1R,3R)-2-(2,2-difluoroethyl)-3-methyl-2,3,4,9-tetrahydro-1H-pyrido[3,4-b]indol-1-yl)-3,5-difluorophenyl)-[1,4′-bipiperidin]-4-yl)methyl)-2-(2,6-dioxopiperidin-3-yl)-6,7-dihydropyrrolo[3,4-f]isoindole-1,3(2H,5H)-dione] | > 100 nM
C[C@@H]1Cc2c([nH]c3ccccc23)[C@@H](c2c(F)cc(N3CCC(N4CC(C(=O)N5Cc6cc7c(cc6C5)C(=O)N(C5CCC(=O)NC5=O)C7)C4)CC3)cc2F)N1CC(F)F (stereo partly drawn) [E 120, 3-(6-(1-(1-(4-((1R,3R)-2-(2,2-difluoroethyl)-3-methyl-2,3,4,9-tetrahydro-1H-pyrido[3,4-b]indol-1-yl)-3,5-difluorophenyl)piperidin-4-yl)azetidine-3-carbonyl)-1-oxo-3,5,6,7-tetrahydropyrrolo[3,4-f]isoindol-2(1H)-yl)piperidine-2,6-dione] | 10 to 100 nM
C[C@@H]1Cc2c([nH]c3ccccc23)[C@@H](c2c(F)cc(N3CC(C(=O)N4CCC(CN5Cc6cc7c(cc6C5)C(=O)N(C5CCC(=O)NC5=O)C7=O)CC4)C3)cc2F)N1CC(F)F (stereo partly drawn) [E 121, 6-((1-(1-(4-((1R,3R)-2-(2,2-difluoroethyl)-3-methyl-2,3,4,9-tetrahydro-1H-pyrido[3,4-b]indol-1-yl)-3,5-difluorophenyl)azetidine-3-carbonyl)piperidin-4-yl)methyl)-2-(2,6-dioxopiperidin-3-yl)-6,7-dihydropyrrolo[3,4-f]isoindole-1,3(2H,5H)-dione] | < 10 nM
C[C@@H]1Cc2c([nH]c3ccccc23)[C@@H](c2c(F)cc(N3CCC(CN4CC(N5Cc6cc7c(cc6C5)C(=O)N(C5CCC(=O)NC5=O)C7=O)C4)CC3)cc2F)N1CC(F)F (stereo partly drawn) [E 123, 6-(1-((1-(4-((1R,3R)-2-(2,2-difluoroethyl)-3-methyl-2,3,4,9-tetrahydro-1H-pyrido[3,4-b]indol-1-yl)-3,5-difluorophenyl)piperidin-4-yl)methyl)azetidin-3-yl)-2-(2,6-dioxopiperidin-3-yl)-6,7-dihydropyrrolo[3,4-f]isoindole-1,3(2H,5H)-dione] | 10 to 100 nM
C[C@@H]1Cc2c([nH]c3ccccc23)[C@@H](c2c(F)cc(N3CCC(N4CCC(CN5Cc6cc7c(cc6C5)C(=O)N(C5CCC(=O)NC5=O)C7=O)CC4)C3)cc2F)N1CC(F)F (stereo partly drawn) [E 124, 6-((1-(1-(4-((1R,3R)-2-(2,2-difluoroethyl)-3-methyl-2,3,4,9-tetrahydro-1H-pyrido[3,4-b]indol-1-yl)-3,5-difluorophenyl)pyrrolidin-3-yl)piperidin-4-yl)methyl)-2-(2,6-dioxopiperidin-3-yl)-6,7-dihydropyrrolo[3,4-f]isoindole-1,3(2H,5H)-dione] | > 100 nM
C[C@@H]1Cc2c([nH]c3ccccc23)[C@@H](c2c(F)cc(N3CCC(CN4CCC(CN5Cc6cc7c(cc6C5)C(=O)N(C5CCC(=O)NC5=O)C7=O)CC4)CC3)cc2F)N1CC(F)F (stereo partly drawn) [E 128, 6-((1-((1-(4-((1R,3R)-2-(2,2-difluoroethyl)-3-methyl-2,3,4,9-tetrahydro-1H-pyrido[3,4-b]indol-1-yl)-3,5-difluorophenyl)piperidin-4-yl)methyl)piperidin-4-yl)methyl)-2-(2,6-dioxopiperidin-3-yl)-6,7-dihydropyrrolo[3,4-f]isoindole-1,3(2H,5H)-dione] | < 10 nM
C[C@@H]1Cc2c([nH]c3ccccc23)[C@@H](c2c(F)cc(N3CCC(CN4CCCC(N5Cc6cc7c(cc6C5)C(=O)N(C5CCC(=O)NC5=O)C7=O)CC4)CC3)cc2F)N1CC(F)F (stereo partly drawn) [E 130, 6-(1-((1-(4-((1R,3R)-2-(2,2-difluoroethyl)-3-methyl-2,3,4,9-tetrahydro-1H-pyrido[3,4-b]indol-1-yl)-3,5-difluorophenyl)piperidin-4-yl)methyl)azepan-4-yl)-2-(2,6-dioxopiperidin-3-yl)-6,7-dihydropyrrolo[3,4-f]isoindole-1,3(2H,5H)-dione] | < 10 nM
